Marks after values point to notes of the source that are not given here.
Experiments:
[1] = tested on: spontaneously hypertensive stroke-prone rats (SHR-SP/Izm); assay: Urine metabolite analysis by NMR (Example 3); assay type: in vivo, rat; details: for Urine metabolic concentration: 4-Hydroxyphenylacetate / Urine metabolic concentration: Glycine / Urine metabolic concentration: N-Phenylacetylglycine / Urine metabolic concentration: Creatinine: Example 3, H-DHA-TG 2,000, DHA-EE 1,303, Tri-DHA-TG 1,246 mg/kg, 4 weeks; for Urine metabolic concentration: Creatinine: normaliser
Procedure: (§1) Spontaneously hypertensive stroke-prone rats (SHR-SP/Izm, Nihon SLC Co., Ltd.) aged 4 weeks were acclimatized for 1 week, then fed an 8-mass % salt-containing solid diet (AlN-93G) and a drinking water freely, and once a day, DHA highly enriched triglycerides (H-DHA-TG), esters (DHA-EE) used in Example 2, and triglycerides (Tri-DHA-TG) prepared in Example 2 were administered by gavage with the amounts shown in Table 3,
(§2) In addition, urine samples were collected before the start of administration and after 4 weeks of administration under fasting for 16 hours, and biochemical tests and metabolite analysis by NMR were performed by conventional methods.

[2] = tested on: spontaneously hypertensive stroke-prone rats (SHR-SP/Izm); assay: Kidney pathology scores GSI and AIS (Example 3); assay type: in vivo, rat; details: H-DHA-TG 2,000, DHA-EE 1,303, Tri-DHA-TG 1,246 mg/kg once a day gavage, 4 weeks, group average
Procedure: as §1
The kidneys were fixed in formalin solution, and then each staining was performed by PAS-staining, Sirius-Red-staining, and immunostaining for α-SMA, CD68, Desmin, and Kim−1 for pathological observations.
For PAS-staining, along with pathomorphological observations, glomerulosclerosis score (GSI), renal artery injury score (AIS) were performed with reference to Clinical and Experimental Hypertension, 2012, 34 (2) 99-106.

[3] = tested on: spontaneously hypertensive stroke-prone rats (SHR-SP/Izm); assay: Serum and urine biochemical tests, comparison of DHA-bound TG and EE (Example 3); assay type: in vivo, rat; details: H-DHA-TG 2,000, DHA-EE 1,303, Tri-DHA-TG 1,246 mg/kg once a day gavage, 4 weeks; for Urine Alb / Urine Alb/CRE / Urine TP: median
Procedure: as §1, §2
At the end of the test, blood was collected from the abdominal vena cava and necropsied.
Biochemical metabolite analysis was performed on the obtained serum by conventional methods.

[4] = tested on: diabetic disease model animals; details: Non-Patent Document 4; cited from earlier work
[5] = tested on: salt-sensitive spontaneously hypertensive stroke-prone rats; details: Non-Patent Documents 1 and 2; cited from earlier work

Compound | Significant differences of urine metabolites vs control, triglycerides compared with esters ([1]; Example 3, Table 6) | Urine metabolic concentration: 4-Hydroxyphenylacetate [1] | Urine metabolic concentration: Glycine [1] | Urine metabolic concentration: N-Phenylacetylglycine [1] | Urine metabolic concentration: Creatinine [1] | AIS (renal artery injury score) [2] | GSI (glomerulosclerosis score) [2] | Serum BUN [3] | Serum CRE [3] | Urine CRE [3] | Urine Alb [3] | Urine Alb/CRE [3] | Urine TP [3] | Blood glucose levels [4] | Renal function protection [5]
CC/C=C\C/C=C\C/C=C\C/C=C\C/C=C\C/C=C\CCC(=O)OCC(COC(=O)CC/C=C\C/C=C\C/C=C\C/C=C\C/C=C\C/C=C\CC)OC(=O)CC/C=C\C/C=C\C/C=C\C/C=C\C/C=C\C/C=C\CC [Tri-DHA-TG, tridocosahexaenoyl triglyceride] | more significant differences | 0.12 ± 0.04 (μM)/Cre(μM) | 0.19 ± 0.03 (μM)/Cre(μM) | 0.42 ± 0.08 (μM)/Cre(μM) | 1.00 ± 0.00 (μM)/Cre(μM) | 21.1 | 11.4 | 25.1 ± 4.2 mg/dL | 0.28 ± 0.06 mg/dL | 3.02 ± 0.47 mg/16 h | 544.95^† ug/16 h | 1.85^† | 3.2^† mg/16 h | – | –
CC/C=C\C/C=C\C/C=C\C/C=C\C/C=C\CCCC(=O)OCC [EPA-EE, ethyl esters of eicosapentaenoic acid] | – | – | – | – | – | – | – | – | – | – | – | – | – | no effect was observed | renal function was protected
CC/C=C\C/C=C\C/C=C\C/C=C\C/C=C\C/C=C\CCC(=O)OCC [DHA-EE, ethyl esters of docosahexaenoic acid] | – | 0.09 ± 0.03 (μM)/Cre(μM) | 0.18 ± 0.04 (μM)/Cre(μM) | 0.34 ± 0.09 (μM)/Cre(μM) | 1.00 ± 0.00 (μM)/Cre(μM) | 19.4 | 7.1 | 25.1 ± 3.7 mg/dL | 0.28 ± 0.04 mg/dL | 3.23 ± 0.59 mg/16 h | 1054 ug/16 h | 4.44^† | 3.2 mg/16 h | lowered blood glucose levels to the same extent as control | renal function was protected
triglycerides of DHA [DHA-TAG] | – | – | – | – | – | – | – | – | – | – | – | – | – | lowered blood glucose levels to the same extent as control | –
triglycerides of EPA [EPA-TAG] | – | – | – | – | – | – | – | – | – | – | – | – | – | no effect was observed | –
